# Results as given in ChEMBL document CHEMBL5365463, “Identification of a Self-Assembling Small-Molecule Cancer Vaccine Adjuvant with an Improved Toxicity Profile” (J Med Chem, 2023).
# Calls of active or inactive are those of the source. No cut-off for these calls is given here.
# Experiments:
# [1] = Toxicity in C57BL/6 mouse assessed as effect on ALP level in serum at 500 ug measured after 1 day after immunization; conditions: 24 h, dose 500 µg
# [2] = Toxicity in C57BL/6 mouse assessed as effect on ALB level in serum at 500 ug measured after 1 day after immunization; conditions: 24 h, dose 500 µg
# [3] = Upregulation of CD86 expression in mouse RAW264.7 cells assessed as fold increase in fluorescence intensity at 20 uM measured after 24 hrs by flow cytometry analysis; type: functional
# RAW264.7 [4] = experiment: Induction of apoptosis in mouse RAW264.7 cells assessed as live cells at 12 uM by flow cytometry analysis (reference value: 75.4 %); type: functional
# [5] = Toxicity in C57BL/6 mouse assessed as effect on ALT level in serum at 500 ug measured after 1 day after immunization; conditions: 24 h, dose 500 µg
# BMDC [6] = experiment: Induction of immune response in TLR7 knockout mouse BMDC cells assessed as increase in IL-6 production at 10 to 100 uM incubated for 24 hrs by ELISA method; type: functional, cell-based; conditions: dose 10-100 µM
# Mus musculus [7] = organism: Mus musculus; experiment: Induction of immune response in OVAp immunized C57BL/6 mouse assessed as increase in number of antigen-specific IFN-gamma+ CD44+ CD8+ T cells in spleen at 100 ug measured after 35 days by flow cytometry analysis; type: functional, organism-based; conditions: T-cell, dose 100.0 µg, time 35.0 day
# [8] = Toxicity in C57BL/6 mouse assessed as effect on AST level in serum at 500 ug measured after 1 day after immunization; conditions: 24 h, dose 500 µg
# RAW264.7 [9] = experiment: Upregulation of CD40 expression in mouse RAW264.7 cells measured after 24 hrs by flow cytometry analysis; type: functional, cell-based; conditions: dose 10-50 µM
# [10] = Toxicity in BALB/c mouse assessed as increase in Timp1 expression at 100 to 1000 ug measured after 16 hrs in presence of hemagglutinin; conditions: in vivo, dose 100-1000 µg
# B16-OVA melanoma cell = experiment: Antitumor activity against mouse B16-OVA melanoma cell xenografted in C57BL/6 mouse assessed as increase in number of memory T cells in spleen at 500 ug, sc in presence of OVAp by flow cytometry analysis; type: functional, organism-based; conditions: dose 500.0 µg
# BMDC [11] = experiment: Induction of immune response in TLR7 knockout mouse BMDC cells assessed as increase in IFN-beta production at 10 to 100 uM incubated for 24 hrs by ELISA method; type: functional, cell-based; conditions: dose 10-100 µM
# [12] = Toxicity in C57BL/6 mouse assessed as effect on lung at 500 ug, sc by H and E staining based analysis; type: organism-based; conditions: in vivo, dose 500 µg
# Mus musculus [13] = organism: Mus musculus; experiment: Induction of immune response in C57BL/6 mouse assessed as increase in total CD8+T cells percentage in spleen at 100 ug measured after 35 days by flow cytometry analysis; type: functional, organism-based; conditions: dose 100.0 µg, time 35.0 day
# [14] = Toxicity in C57BL/6 mouse assessed as effect on kidney at 500 ug, sc by H and E staining based analysis; type: organism-based; conditions: in vivo, dose 500 µg
# [15] = Antitumor activity against mouse B16-OVA melanoma cell xenografted in C57BL/6 mouse assessed as fold increase in CD8+T cells at 500 ug, sc in presence of OVAp by flow cytometry analysis; type: functional; conditions: dose 500 µg
# BMDC [16] = experiment: Induction of immune response in TLR7 knockout mouse BMDC cells assessed as increase in CXCL10 production at 10 to 100 uM incubated for 24 hrs by ELISA method; type: functional, cell-based; conditions: dose 10-100 µM
# [17] = Toxicity in BALB/c mouse assessed as reduction in platelet count measured after 16 hrs; conditions: dose 100-1000 µg
structure (smiles),measurement,setting,value
C[C@H](CCC(=O)NCCCCCCCNC(=O)CC[C@@H](C)[C@H]1CC[C@H]2[C@@H]3CC[C@@H]4C[C@H](O)CC[C@]4(C)[C@H]3C[C@H](O)[C@]12C)[C@H]1CC[C@H]2[C@@H]3CC[C@@H]4C[C@H](O)CC[C@]4(C)[C@H]3C[C@H](O)[C@]12C,Activity,[1],Non-Toxic
same,Activity,[2],Non-Toxic
same,fold change (FC),[3],2
same,Activity,RAW264.7 [4],66.8%
same,Activity,[5],Non-Toxic
same,Activity,BMDC [6],inactive
same,Activity,Mus musculus [7],Active
same,Activity,[8],Non-Toxic
same,Activity,RAW264.7 [9],Dose-Dependent Effect
same,Activity,[10],Non-Toxic
same,Activity,B16-OVA melanoma cell,Active
same,Activity,BMDC [11],inactive
same,Activity,[12],Non-Toxic
same,Activity,Mus musculus [13],Active
same,Activity,[14],Non-Toxic
same,fold change (FC),[15],6.3
same,Activity,BMDC [16],inactive
same,Activity,[17],Dose-Dependent Effect
